Series [1] can be described thus: In vitro metabolic stability in human plasma. The format is in vitro ADME. Particulars: human, plasma, 37° C., 10 μM compound, read-out: Human plasma T1/2. Here is the method: (§1) This example detects the metabolic stability of the compounds of the present disclosure in human (rat) plasma and intestinal S9 in vitro. In a human (rat) plasma reaction system, 990 μl of human (rat) plasma was taken and incubated at 37° C. for 5 minutes, and 10 μl of the compound mother liquor was used to initiate the reaction. In the human (rat) intestinal S9 stability experiment, in the order shown in Table 2 below, the samples were added and incubated in a 37° C. water bath to initiate the reaction, each sample performed in triplicates. Respectively, at 1 minute, 2 minutes, 5 minutes, 15 minutes, 30 minutes after the reaction began, 100 μL of each was taken and added to a centrifuge tube containing 400 μL of 0° C. precooled internal standard working solution. The reaction was terminated, vortexed and mixed for 1 minute, centrifuged at 10000×g for 10 minutes in a 4° C. precooled high-speed centrifuge, and the supernatant was detected with HPLC. The test results were used to calculate metabolic half-life using WinNonlin (version 6.2 Pharsight, Mountain View, Calif.) with a non-compartmental model.
(§2) Compound stock solution concentration: 1 mM
(§3) Reaction matrix: human (rat) plasma, intestinal S9 purchased from Research Institute for Liver Diseases (Shanghai) Co., Ltd.

A short description of series [2]: In vitro metabolic stability in rat intestine S9. The format is in vitro ADME. Particulars: rat, 37° C., 10 μM compound, 1 mg/mL S9, NADPH regeneration system, read-out: Rat intestine S9 T1/2. Here is the method:
as §1, §2, §3

Series [3] can be described thus: In vitro metabolic stability in human intestine S9. Format: in vitro ADME. To be noted: human, 37° C., 10 μM compound, 1 mg/mL S9, NADPH regeneration system, read-out: Human intestine S9 T1/2. Here is the method:
as §1, §2, §3

Series [4] can be described thus: In vitro metabolic stability in rat plasma. The format is in vitro ADME. Particulars: rat, plasma, 37° C., 10 μM compound, read-out: Rat plasma T1/2. The protocol: as §1, §2, §3
Series [5] can be described thus: Determination of solubility in deionized water (HPLC, external standard). To be noted: 25 °C, water, thermodynamic from solid.
In series [6] the test system is Candida albicans ATCC10231. As to the kind of experiment: Systemic fungal infection in mice, intragastric administration. The format is in vivo, ICR mice. Particulars: Candida albicans, ATCC10231, po. Here is the method:
(§4) ICR mice, weighing 18-22 g, male, provided by Hubei Experimental Animal Center.
Prior to the experiment, a small amount of Candida albicans was picked from an SDA medium kept at 4° C. with an inoculation loop and inoculated into 1 ml YPD culture medium, cultured at 30° C. with 200 rpm shaking and activated for 16 hours, so that the fungus was in the late stage of exponential growth. Counted with a hemocytometer and the fungal solution concentration was adjusted to 1×10^3 to 5×10^3 CFU/ml with RPMI1640 medium. Monoclonal Candida albicans on SDA plate was picked up, inoculated into 1 ml YPD (Yeast Extract Peptone Dextrose Medium, the same below) culture medium, cultured at 35° C., 200 rpm for 16 hours until late exponential growth phase. Candida albicans was inoculated into fresh medium for culturing for 6 hours at 1%, centrifuged at 1000×g for 5 minutes, washed with physiological saline three times until the supernatant was colorless, counted with a hemocytometer, and the cell concentration was adjusted to 5×10^6 cells/ml. A tail vein injection of 0.1 ml/10 g caused a systemic fungal infection in mice. […] A total of 7 days of observations were performed. All dead mice were burned with ethanol.

Series [7] deals with Candida albicans ATCC10231. In words: Systemic fungal infection in mice, intravenous administration. Format: in vivo, ICR mice. Here is the method:
as §4
Prior to the experiment, a small amount of Candida albicans was picked from an SDA (sacharomyces agar, the same below) medium kept at 4° C. with an inoculation loop and inoculated into 1 ml YPD (Yeast Extract Peptone Dextrose Medium) culture medium, cultured at 30° C. with 200 rpm shaking and activated for 16 hours, so that the fungus was in the late stage of exponential growth. Counted with a hemocytometer and the fungal solution concentration was adjusted to 1×10^3-5×10^3 CFU/ml with RPMI1640 medium (Roswell Park Memorial Institute 1640, the same below). Monoclonal Candida albicans on SDA plate was picked up, inoculated into 1 ml YPD (Yeast Extract Peptone Dextrose Medium, the same below) culture medium, cultured at 35° C., 200 rpm for 16 hours until late exponential growth phase. Candida albicans was inoculated into fresh medium for culturing for 6 hours at 1%, centrifuged at 1000×g for 5 minutes, washed with physiological saline three times until the supernatant was colorless, counted with a hemocytometer, and the cell concentration was adjusted to 5×10^6 cells/ml. A tail vein injection of 0.1 ml/10 g caused a systemic fungal infection in mice. […] A total of 7 days of observations were performed. All dead mice were burned with ethanol.

The mark [8] stands for this setting: 24 h, 20 mg/kg intragastric once daily for 5 days, day 1, read-out: survival rate of mice, day 1.
The mark [9] stands for this setting: 48 h, 20 mg/kg intragastric once daily for 5 days, day 2, read-out: survival rate of mice, day 2.
[10] abbreviates: 72 h, 20 mg/kg intragastric once daily for 5 days, day 3, read-out: survival rate of mice, day 3.
The mark [11] stands for this setting: 96 h, 20 mg/kg intragastric once daily for 5 days, day 4, read-out: survival rate of mice, day 4.
Where [12] appears, read: 120 h, 20 mg/kg intragastric once daily for 5 days, day 5, read-out: survival rate of mice, day 5.
Where [13] appears, read: 144 h, 20 mg/kg intragastric once daily for 5 days, day 6, read-out: survival rate of mice, day 6.
The mark [14] stands for this setting: 168 h, 20 mg/kg intragastric once daily for 5 days, day 7, read-out: survival rate of mice, day 7.

Half-life, solubility and responders data for 7 molecules are collected here from US10517867B2, “Posaconazole derivative, pharmaceutical composition and use thereof” (priority 2016, dated 2019).

Some results are limits rather than exact numbers.

For `CC[C@@H]([C@H](C)O)n1ncn(-c2ccc(N3CCN(c4ccc(OC[C@@H]5CO[C@@](Cn6c[n+](C(C)OC(=O)OCC[C@@H](N)C(=O)O)cn6)(c6ccc(F)cc6F)C5)cc4)CC3)cc2)c1=O.Cl.[Cl-]` (some centres unmarked) [ST0018], the half-life at 10 µM in series [1] came out at 18.6 ± 5.63 min; in series [2] (intestinal S9, pH 7.4), 45.2 ± 6.95 min; in series [3] (intestinal S9), 50.1 ± 5.98 min; in series [4] it was 11.5 ± 1.23 min.

In general, solubility refers to the dissolved amount per volume that the medium holds. Higher therefore signals much dissolved substance. Take `CC[C@@H]([C@H](C)OC(=O)OC(C)OC(=O)CCCCCOP(=O)([O-])[O-])n1ncn(-c2ccc(N3CCN(c4ccc(OC[C@@H]5CO[C@@](Cn6cncn6)(c6ccc(F)cc6F)C5)cc4)CC3)cc2)c1=O.[Na+].[Na+]` (some centres unmarked) [ST0063]: the solubility at 30 min in series [5] was > 50 mg/mL. The half-life at 10 µM in series [1] was 0.85 ± 0.45 min; in series [2] (pH 7.4) it was 19.4 ± 5.69 min; in series [3], 16.3 ± 2.12 min; in series [4] it was 1.21 ± 0.75 min. For the same molecule, the responders at 20 mg/kg was determined as 90% in series [6] (24 h, read-out: survival rate of mice, day 1, 20 mg/kg intragastric once daily for 5 days, day 1); 90% in series [6] (48 h, read-out: survival rate of mice, day 2, 20 mg/kg intragastric once daily for 5 days, day 2); 80% in series [6] (72 h, read-out: survival rate of mice, day 3, 20 mg/kg intragastric once daily for 5 days, day 3); 80% in series [6] (96 h, read-out: survival rate of mice, day 4, 20 mg/kg intragastric once daily for 5 days, day 4); 80% in series [6] (120 h, read-out: survival rate of mice, day 5, 20 mg/kg intragastric once daily for 5 days, day 5); 80% in series [6] (144 h, read-out: survival rate of mice, day 6, 20 mg/kg intragastric once daily for 5 days, day 6). For the same molecule, the responders at 20 mg/kg in series [6] (168 h, read-out: survival rate of mice, day 7, 20 mg/kg intragastric once daily for 5 days, day 7) worked out at 80%; in series [7] (24 h, read-out: survival rate of mice, day 1), 100%; in series [7] (48 h, read-out: survival rate of mice, day 2), 100%; in series [7] (72 h, read-out: survival rate of mice, day 3), 90%; in series [7] (96 h, read-out: survival rate of mice, day 4) it was 90%; in series [7] (120 h, read-out: survival rate of mice, day 5), 90%. Besides, the responders at 20 mg/kg worked out at 90% in series [7] (144 h, read-out: survival rate of mice, day 6) and 90% in series [7] (168 h, read-out: survival rate of mice, day 7).

In the case of `CC[C@@H](C(C)OC(=O)OC(C)OC(=O)CCCCCCCCCOP(=O)([O-])[O-])n1ncn(-c2ccc(N3CCN(c4ccc(OC[C@@H]5CO[C@@](Cn6cncn6)(c6ccc(F)cc6F)C5)cc4)CC3)cc2)c1=O.[Na+].[Na+]` (some centres unmarked) [ST0072], the half-life at 10 µM in series [1] is 18.3 ± 1.97 min; in series [2] (intestinal S9, pH 7.4) it was 39.9 ± 10.8 min; in series [3] (intestinal S9), 46.8 ± 12.8 min; in series [4] it was 25.6 ± 13 min.

In the case of `CC[C@@H](C(C)OC(=O)OC(C)OC(=O)CCCCOS(=O)(=O)[O-])n1ncn(-c2ccc(N3CCN(c4ccc(OC[C@@H]5CO[C@@](Cn6cncn6)(c6ccc(F)cc6F)C5)cc4)CC3)cc2)c1=O.[Na+]` (some centres unmarked) [ST0078], the solubility at 30 min in series [5] is > 50 mg/mL. The half-life at 10 µM turned out to be 2.22 ± 0.58 min in series [1], 28.2 ± 5.65 min in series [2] (pH 7.4), 24.2 ± 8.75 min in series [3] and 2.57 ± 0.74 min in series [4]. The responders at 20 mg/kg turned out to be 90% in series [6] (setting [8]); 90% in series [6] (setting [9]); 80% in series [6] (setting [10]); 70% in series [6] (setting [11]); 70% in series [6] (setting [12]); 70% in series [6] (setting [13]). The responders at 20 mg/kg in series [6] (setting [14]) was 70%.

As to `CC[C@@H](C(C)OC(=O)OC(C)OC(=O)CCCCCOS(=O)(=O)[O-])n1ncn(-c2ccc(N3CCN(c4ccc(OC[C@@H]5CO[C@@](Cn6cncn6)(c6ccc(F)cc6F)C5)cc4)CC3)cc2)c1=O.[Na+]` (some centres unmarked) [ST0079], the solubility at 30 min in series [5] is > 50 mg/mL. Also, the half-life at 10 µM in series [1] is 2.56 ± 0.42 min; in series [2] (pH 7.4) it was 27.9 ± 11.2 min; in series [3], 28.7 ± 8.9 min; in series [4], 2.06 ± 0.77 min. Besides, the responders at 20 mg/kg in series [6] (setting [8]) stood at 90%; in series [6] (setting [9]), 90%; in series [6] (setting [10]), 90%; in series [6] (setting [11]), 80%; in series [6] (setting [12]) it was 80%; in series [6] (setting [13]), 70%. Moreover, the responders at 20 mg/kg in series [6] (setting [14]) worked out at 70%.

As for `CC[C@@H]([C@H](C)OC(=O)OC(C)OC(=O)Cc1ccc(OS(=O)(=O)[O-])cc1)n1ncn(-c2ccc(N3CCN(c4ccc(OC[C@@H]5CO[C@@](Cn6cncn6)(c6ccc(F)cc6F)C5)cc4)CC3)cc2)c1=O.[Na+]` (some centres unmarked) [ST0080], the half-life at 10 µM in series [1] was 12.8 ± 3.57 min; in series [2] (pH 7.4), 45.4 ± 11.3 min; in series [3] it was 40.3 ± 12.7 min; in series [4], 13.3 ± 4.78 min. The responders at 20 mg/kg is 90% in series [6] (setting [8]); 90% in series [6] (setting [9]); 90% in series [6] (setting [10]); 80% in series [6] (setting [11]); 70% in series [6] (setting [12]); 70% in series [6] (setting [13]). Besides, the responders at 20 mg/kg in series [6] (setting [14]) was determined as 60%.

Consider `CC[C@@H]([C@H](C)OC(=O)OC(C)OC(=O)CCCCCCCOS(=O)(=O)[O-])n1ncn(-c2ccc(N3CCN(c4ccc(OC[C@@H]5CO[C@@](Cn6cncn6)(c6ccc(F)cc6F)C5)cc4)CC3)cc2)c1=O.[Na+]` (some centres unmarked) [ST0082], for which the solubility at 30 min in series [5] was > 50 mg/mL. Besides, the half-life at 10 µM in series [1] worked out at 8.99 ± 2.52 min; in series [2] (pH 7.4) it was 52.6 ± 8.69 min; in series [3] it was 42.1 ± 13.7 min; in series [4], 9.36 ± 1.56 min. The responders at 20 mg/kg in series [6] (setting [8]) is 90%; in series [6] (setting [9]), 70%; in series [6] (setting [10]) it was 70%; in series [6] (setting [11]), 70%; in series [6] (setting [12]), 70%; in series [6] (setting [13]), 70%. The responders at 20 mg/kg in series [6] (setting [14]) is 60%.
